For assay [1], the target named is T1, Full length wild-type cereblon CRBN (Homo sapiens, UniProt Q96SW2).
T1 construct: Full length wild-type cereblon CRBN (80.0 nM, 10 μL) was incubated in assay buffer
Put plainly: Fluorescence polarization (FP) assay indicating cereblon binding. The text has this:
Protocol for Fluorescent Polarization Assay
Compound activity was monitored in a fluorescence polarization (FP) homogeneous assay using 1-[5-({2-[2-(2-{[2-(2,6-dioxopiperidin-3-yl)-1,3-dioxo-2,3-dihydro-1H-isoindol-4-yl]oxy}acetamido)ethoxy]ethyl}carbamoyl)pentyl]-3,3-dimethyl-2-[(1E,3E)-5-[(2E)-1,3,3-trimethyl-5-sulfo-2,3-dihydro-1H-indol-2-ylidene]penta-1,3-dien-1-yl]-3H-indol-1-ium-5-sulfonate as a fluorescent probe. Unless otherwise stated, all reagents were purchased from Sigma Aldrich. Enzymatic reactions were conducted in Perkin-Elmer Black 384 well ProxiPlate Plus (catalogue no. 6008269) in 10 μL total volume. Full length wild-type cereblon CRBN (80.0 nM, 10 μL) was incubated in assay buffer containing 20 mM HEPES (pH 8.0), […], 0.5 mM TCEP and 0.05% Tween 20 in the presence or absence of compound (300 nL). Inhibitors were stored as 10 mM DMSO stocks in an inert environment (low humidity, dark, low oxygen, room temperature) using the Storage Pod System. Compounds and DMSO were dispensed using the Echo E5XX (Labcyte Inc. USA) to give concentrations from 300 to 0.937 or 3000 to 9.3 nM in a 12 data point curve. […] Following incubation at room temperature for 30 min, the assay was initiated by dispensing the probe to a final concentration of 5 nM (2.5 nL of a 20 μM stock) using the Echo E5XX. FP was measured after a period of 12 hours using a Pherastar plate reader (BMG Labtech, Germany) exciting at 590 nm and measuring the amount of parallel and perpendicular light at 675 nm. The FP signal was subsequently normalized to the no-compound control (i.e., DMSO). Analysis and IC50 values were derived using Dotmatics (Dotmatics UK) software.

In assay [2] the target is GSPT1 (Homo sapiens, UniProt P15170+Q96SW2). Put plainly: Immunofluorescence assay for GSPT1 degradation in CAL-Si cells. On the set-up: CAL-Si cells were purchased from DSMZ (cat. Number ACC302); host or cells: CAL-Si (CAL-51) cells. It counts as cell-based. The settings on record: 6 hours treatment. The method, then: The representative compounds were tested in an immunofluorescence assay for their activity to bind to degrade GSPT1. CAL-Si cells were purchased from DSMZ (cat. Number ACC302), sub-cultured in 90% Dulbecco's MEM (4.5 g/L glucose, Gibco 11965)+10% […] inactivated FBS (BioConcept, 2-01F136I) and incubated at 37° C., 5% CO2. For the assay, imaging microtiterplate Cell Carrier 96 Ultra (Perkin Elmer 6055302) were pre-coated with Fibronectin (Sigma F085, 30 μl at 0.2 μg/ml) in PBS (100 μl, Gibco 14190) for 45 min at room temperature, rinsed with PBS and CAL-Si cells (30K cells/well) were plated and let to adhere overnight. Cells were treated with compounds typically using a serial dilution ranging from 30 μM to 0.1 nM for 6 hours. Compounds were stored at 10 mM DMSO stocks. Vehicle (DMSO), positive (CC-885, 10 μM) and rescue controls (positive control plus 0.2 μM bortezomib) were also included at this stage. Cells were subsequently rinsed with PBS and fixed in 10% Formalin solution (50 μl, Sigma HT5011)) for 20 mins at room temperature. Following three consecutive PBS washes (100 μl), cells were permeabilized in 0.1% Triton X-100 in PBS (Sigma 93443, 50 μl) for 15 mins at room temperature. Following three further PBS washes, […] blocking buffer (1% BSA, Sigma A4503, in PBS) was added for 45 min for signal-to-noise reduction.
Primary antibody (human GSPT1, Sigma HPA052488) was diluted in blocking buffer (dil.1/300, 35 μl/well) and incubated with the cells overnight at 4° C. After three PBS washes, Alexa-fluor 488 coupled secondary antibodies (Invitrogen, A32731, dil.1/1000), Alexa-fluor 647-Phalloidin (Invitrogen, A22287, dil.1/200) and DAPI (Thermo, #62248, dil.1/1000) were diluted in blocking buffer and incubated with the samples for 2 hours at room temperature. After three final PBS washes, samples were conserved in […] PBS in the dark, until measurement. Image acquisition was performed on the Operetta High-Content Imager (Perkin-Elmer). Fluorescence intensity of Alexa-Fluor 488 (GSPT1), Alexa-Fluor 647 (Actin) and DAPI (Nucleus) were measured. For the determination of GSPT1 DC50 values, a custom algorithm implemented in the PerkinElmer image analysis software Harmony-Acapella® was developed. After user-defined setting of adjustment parameters, the analysis was run identically without human intervention for all image fields. DAPI staining of the nuclei was used to determine the location of cells using standard nuclei detection modules. Segmentation artifacts were removed by threshold-based filters for area, roundness and intensity. The outline of the cells was determined analogously from the sum of the normalized, smoothed DAPI and Actin channel, starting from each nucleus.
The Alexa-Fluor 488 (GSPT1) signal intensity in each cell was finally measured, in order to obtain a Mean intensity per cell. GSPT1 degradation (DC50) was calculated after normalization to controls and data import in CDD vault Database, using non-linear regression.

[3] abbreviates: cereblon binding, CRBN 80.0 nM, probe 5 nM, FP read after 12 hours, read-out: rFP IC50.
The mark [4] stands for this setting: fluorescence polarization assay, read-out: IC50 value (cereblon binding).
Where [5] appears, read: read-out: Code: activity for GSPT1 degradation (DC50).
Setting [6] is: GSPT1 degradation, read-out: DC50.

Consider 19 molecules from patent US20240051937A1, “ISOINDOLINONE AMIDE COMPOUNDS USEFUL TO TREAT DISEASES ASSOCIATED WITH GSPT1” (Monte Rosa Therapeutics, Inc., priority 2021, published 2024).

Like-named read-outs stand apart in the source and are kept apart here. Where only a bound is given, the exact number is not on record here.

Chain of GSPT1 (P15170 whole entry): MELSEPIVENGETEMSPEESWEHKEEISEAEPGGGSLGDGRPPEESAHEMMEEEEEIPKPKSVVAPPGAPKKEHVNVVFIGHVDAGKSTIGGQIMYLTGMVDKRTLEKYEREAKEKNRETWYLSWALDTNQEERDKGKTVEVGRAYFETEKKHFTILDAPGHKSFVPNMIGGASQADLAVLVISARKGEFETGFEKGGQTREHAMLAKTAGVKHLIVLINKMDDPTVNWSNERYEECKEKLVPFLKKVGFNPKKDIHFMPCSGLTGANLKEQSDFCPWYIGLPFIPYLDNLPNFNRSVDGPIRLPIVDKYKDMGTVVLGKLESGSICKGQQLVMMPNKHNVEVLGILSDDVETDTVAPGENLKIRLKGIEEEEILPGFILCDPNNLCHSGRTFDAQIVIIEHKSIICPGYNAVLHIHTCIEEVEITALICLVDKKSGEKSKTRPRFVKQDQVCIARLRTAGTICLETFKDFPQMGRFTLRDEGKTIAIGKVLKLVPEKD
Chain of GSPT1 (Q96SW2 whole entry): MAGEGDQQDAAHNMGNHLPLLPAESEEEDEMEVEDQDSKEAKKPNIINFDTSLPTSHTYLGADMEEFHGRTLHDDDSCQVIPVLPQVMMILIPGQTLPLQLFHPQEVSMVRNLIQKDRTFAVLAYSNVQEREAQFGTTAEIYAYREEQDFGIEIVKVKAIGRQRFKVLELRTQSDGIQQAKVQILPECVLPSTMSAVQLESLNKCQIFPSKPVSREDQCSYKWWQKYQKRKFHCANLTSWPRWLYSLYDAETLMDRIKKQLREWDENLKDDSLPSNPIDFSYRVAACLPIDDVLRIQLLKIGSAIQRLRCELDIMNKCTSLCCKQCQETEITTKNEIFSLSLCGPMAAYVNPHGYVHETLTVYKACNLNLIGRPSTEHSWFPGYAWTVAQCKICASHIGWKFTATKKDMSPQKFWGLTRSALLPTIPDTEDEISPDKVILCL
Chain of GSPT1 (Q16531 whole entry partner): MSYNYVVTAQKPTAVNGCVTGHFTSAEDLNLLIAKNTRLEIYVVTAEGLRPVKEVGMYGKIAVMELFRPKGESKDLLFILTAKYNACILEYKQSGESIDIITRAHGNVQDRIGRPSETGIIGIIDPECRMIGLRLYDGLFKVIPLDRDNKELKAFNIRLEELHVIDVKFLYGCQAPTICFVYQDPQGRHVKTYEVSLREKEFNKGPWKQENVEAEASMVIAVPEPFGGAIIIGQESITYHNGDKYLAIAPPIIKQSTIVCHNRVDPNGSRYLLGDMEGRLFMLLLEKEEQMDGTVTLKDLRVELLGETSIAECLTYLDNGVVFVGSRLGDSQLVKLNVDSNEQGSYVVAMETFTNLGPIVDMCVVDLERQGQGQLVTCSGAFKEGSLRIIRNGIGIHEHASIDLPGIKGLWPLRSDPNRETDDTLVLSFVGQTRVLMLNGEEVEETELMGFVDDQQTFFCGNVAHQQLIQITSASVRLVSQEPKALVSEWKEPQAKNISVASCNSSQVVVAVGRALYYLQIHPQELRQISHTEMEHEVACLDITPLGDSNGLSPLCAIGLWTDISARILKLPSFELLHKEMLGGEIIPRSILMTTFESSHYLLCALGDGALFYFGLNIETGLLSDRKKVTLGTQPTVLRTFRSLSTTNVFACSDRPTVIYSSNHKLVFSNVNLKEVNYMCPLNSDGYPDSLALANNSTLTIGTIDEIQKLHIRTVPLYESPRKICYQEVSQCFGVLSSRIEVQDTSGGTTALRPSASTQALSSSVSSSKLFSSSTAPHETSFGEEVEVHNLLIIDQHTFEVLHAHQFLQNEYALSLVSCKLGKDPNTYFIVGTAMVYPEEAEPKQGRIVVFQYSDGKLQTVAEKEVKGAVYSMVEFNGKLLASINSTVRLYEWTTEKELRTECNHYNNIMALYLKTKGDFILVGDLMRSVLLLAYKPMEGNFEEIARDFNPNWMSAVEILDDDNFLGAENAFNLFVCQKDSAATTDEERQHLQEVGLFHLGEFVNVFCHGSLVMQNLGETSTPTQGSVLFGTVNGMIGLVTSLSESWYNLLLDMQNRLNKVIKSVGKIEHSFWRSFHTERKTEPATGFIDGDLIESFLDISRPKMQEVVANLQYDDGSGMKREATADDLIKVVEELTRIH
T1 sequence (Q96SW2 whole entry): as the sequence (Q96SW2 whole entry) above

One may read the IC50 as the concentration that inhibits the measured activity by half. The DC50 is the concentration at which degradation of the target reaches its halfway point. Take `O=C1CCC(N2Cc3ccc(CCC(=O)Nc4ccc(F)c(OC(F)F)c4)cc3C2=O)C(=O)N1` (stereo not drawn) [Compound 30]: the IC50 is 500 to 1100 nM in assay [1] (setting [3]) and under 1100 nM in assay [1] (setting [4]). The DC50 in assay [2] (setting [5]) was 30 to 300 nM.
Consider `O=C1CCC(N2Cc3ccc(CCC(=O)Nc4ccc(-c5ccccn5)cc4)cc3C2=O)C(=O)N1` (stereo not drawn) [Compound 44], for which the IC50 was 500 to 1100 nM in assay [1] (setting [3]) and under 1100 nM in assay [1] (setting [4]). In addition, the half-maximal degradation concentration (DC50) in assay [2] (setting [5]) is at most 30 nM; in assay [2] (setting [6]), 27 nM.
Consider `Cc1c(CN2CCOCC2)cc(NC(=O)CCc2ccc3c(c2)C(=O)N(C2CCC(=O)NC2=O)C3)cc1OC(F)(F)F` (stereo not drawn) [Compound 53], for which the results for the IC50 in assay [1] (setting [3]) and in assay [1] (setting [4]) were 500 to 1100 nM and under 1100 nM, respectively. Besides, the DC50 was at most 30 nM in assay [2] (setting [5]) and 22 nM in assay [2] (setting [6]).
As for `Cc1ncc(NC(=O)CCc2ccc3c(c2)C(=O)N(C2CCC(=O)NC2=O)C3)cc1OC(F)(F)F` (stereo not drawn) [Compound 64], the IC50 in assay [1] (setting [3]) fell in the range of 1100 to 1700 nM. Besides, the DC50 in assay [2] (setting [5]) was 30 to 300 nM.
Regarding `CC(C)(C)c1ccc(NC(=O)CCc2ccc3c(c2)C(=O)N(C2CCC(=O)NC2=O)C3)cc1` (stereo not drawn) [Compound 45], the IC50 is 500 to 1100 nM in assay [1] (setting [3]) and under 1100 nM in assay [1] (setting [4]). Further, the DC50 in assay [2] (setting [5]) was at most 30 nM; in assay [2] (setting [6]), 22 nM.
`O=C1CCC(N2Cc3ccc(CCC(=O)Nc4cc(CN5CCOCC5)cc(OC(F)F)c4)cc3C2=O)C(=O)N1` (stereo not drawn) [Compound 66]: the IC50 in assay [1] (setting [3]) was over 1700 nM. Also, the DC50 in assay [2] (setting [5]) lay within 30 to 300 nM.
For `Cc1c(Cl)cc(NC(=O)COc2ccc3c(c2)C(=O)N(C2CCC(=O)NC2=O)C3)cc1CN1CCOCC1` (stereo not drawn) [Compound 68, N-(3-chloro-4-methyl-5-(morpholinomethyl)phenyl)-2-((2-(2,6-dioxopiperidin-3-yl)-3-oxoisoindolin-5-yl)oxy)acetamide], in that order: at most 500 nM and over 300 nM.
The corresponding values for `COc1cc(NC(=O)CCc2ccc3c(c2)C(=O)N(C2CCC(=O)NC2=O)C3)cnc1C` (stereo not drawn) [Compound 36] are 1100 to 1700 nM and over 300 nM.
Take `CCc1ncc(NC(=O)CCc2ccc3c(c2)C(=O)N(C2CCC(=O)NC2=O)C3)cc1C` (stereo not drawn) [Compound 47]: the IC50 in assay [1] (setting [3]) was 500 to 1100 nM; in assay [1] (setting [4]), under 1100 nM. In addition, the DC50 in assay [2] (setting [5]) was in the range of 30 to 300 nM.
The corresponding values for `Cc1c(Cl)cc(NC(=O)CCc2ccc3c(c2)C(=O)N(C2CCC(=O)NC2=O)C3)cc1OC1CCN(C)C1` (stereo not drawn) [Compound 50] are at most 500 nM, under 1100 nM and 30 to 300 nM.
As for `O=C1CCC(N2Cc3ccc(CCC(=O)N4CCCCC4)cc3C2=O)C(=O)N1` (stereo not drawn) [Compound 13], the IC50 in assay [1] (setting [3]) was over 1700 nM. Also, the DC50 in assay [2] (setting [5]) was over 300 nM.
The corresponding values for `O=C1CCC(N2Cc3ccc(CCC(=O)Nc4cc(F)cc(OC(F)(F)F)c4)cc3C2=O)C(=O)N1` (stereo not drawn) [Compound 56] are over 1700 nM and 30 to 300 nM.
As for `O=C1CCC(N2Cc3ccc(CCC(=O)Nc4cc(Cl)cc(OC5CCNC5)c4)cc3C2=O)C(=O)N1` (stereo not drawn) [Compound 19], the IC50 in assay [1] (setting [3]) was 500 to 1100 nM; in assay [1] (setting [4]), under 1100 nM. Besides, the DC50 in assay [2] (setting [5]) was over 300 nM.
On to `Cc1ccc(NC(=O)COc2ccc3c(c2)C(=O)N(C2CCC(=O)NC2=O)C3)cc1Cl` (stereo not drawn) [Compound 69, N-(3-chloro-4-methylphenyl)-2-((2-(2,6-dioxopiperidin-3-yl)-3-oxoisoindolin-5-yl)oxy)acetamide], for which, in assay [1] (setting [3]), the IC50 lay in the range of 500 to 1100 nM. The DC50 in assay [2] (setting [5]) is over 300 nM.
The corresponding values for `CC1(c2ccc(NC(=O)CCc3ccc4c(c3)C(=O)N(C3CCC(=O)NC3=O)C4)cc2)CC1` (stereo not drawn) [Compound 58] are 1100 to 1700 nM and 30 to 300 nM.
Take `CCc1cc(NC(=O)CCc2ccc3c(c2)C(=O)N(C2CCC(=O)NC2=O)C3)ccn1` (stereo not drawn) [Compound 54]: the IC50 in assay [1] (setting [3]) is 500 to 1100 nM; in assay [1] (setting [4]), under 1100 nM. Besides, the DC50 in assay [2] (setting [5]) was over 300 nM.
Turning to `CCc1cc(NC(=O)CCc2ccc3c(c2)C(=O)N(C2CCC(=O)NC2=O)C3)cnc1C` (stereo not drawn) [Compound 46], the IC50 in assay [1] (setting [3]) is 500 to 1100 nM; in assay [1] (setting [4]), under 1100 nM. For the same molecule, the DC50 in assay [2] (setting [5]) was in the range of 30 to 300 nM.
With `Cc1c(Cl)cc(NC(=O)CCc2ccc3c(c2)C(=O)N(C2CCC(=O)NC2=O)C3)cc1OCCN1CCOCC1` (stereo not drawn) [Compound 39], the IC50 in assay [1] (setting [3]) was at most 500 nM; in assay [1] (setting [4]), under 1100 nM. The DC50 in assay [2] (setting [5]) was 30 to 300 nM.
As for `Cc1c(Cl)cc(NC(=O)CCc2ccc3c(c2)C(=O)N(C2CCC(=O)NC2=O)C3)cc1CN1CC2CCC(C1)O2` (stereo not drawn) [Compound 24], the IC50 in assay [1] (setting [3]) was 1100 to 1700 nM. The DC50 in assay [2] (setting [5]) was 30 to 300 nM.
